PubChem BioAssay (NCI)
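Assay format: 96-well plates, 48-hour exposure. The concentration for 50% growth inhibition is given as GI50. TGI marks complete inhibition of growth.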

What was measured:
Assay in all cases: NCI tumour cell line growth inhibition, 48 h
[1] = test system: MALME-3M melanoma
[2] = test system: DU-145 prostate
[3] = test system: UACC-257 melanoma
[4] = test system: SW-620 colon
[5] = test system: HS 578T breast
[6] = test system: KM12 colon
[7] = test system: NCI-H522 lung
[8] = test system: EKVX NSCLC
[9] = test system: SF-539 CNS
[10] = test system: ACHN renal
[11] = test system: A498 renal
[12] = test system: BT-549 breast
[13] = test system: SK-MEL-28 melanoma
[14] = test system: NCI-H23 lung
[15] = test system: UACC-62 melanoma
[16] = test system: M14 melanoma
[17] = test system: NCI-H460 lung
[18] = test system: MOLT-4 leukemia
[19] = test system: LOX IMVI melanoma
[20] = test system: OVCAR-5 ovarian
[21] = test system: SF-268 CNS
[22] = test system: MDA-MB-231 breast
[23] = test system: 786-0 renal
[24] = test system: HT29 colon
[25] = test system: T-47D breast
[26] = test system: A549 NSCLC
[27] = test system: HCT-116 colon
[28] = test system: OVCAR-8 ovarian
[29] = test system: K-562 leukemia
[30] = test system: MCF7 breast
[31] = test system: HOP-92 NSCLC
[32] = test system: U251 CNS
[33] = test system: RXF 393 renal
[34] = test system: HCC-2998 colon
[35] = test system: OVCAR-3 ovarian
[36] = test system: TK-10 renal
[37] = test system: SR leukemia
[38] = test system: SNB-19 CNS
[39] = test system: NCI-H226 lung
[40] = test system: CCRF-CEM leukemia
[41] = test system: MDA-MB-435
[42] = test system: SK-OV-3 ovarian
[43] = test system: IGROV1 ovarian
[44] = test system: SF-295 CNS
[45] = test system: COLO 205 colon
[46] = test system: NCI/ADR-RES ovarian
[47] = test system: SN12C renal
[48] = test system: RPMI-8226 leukemia
[49] = test system: HOP-62 NSCLC
[50] = test system: HCT-15 colon
[51] = test system: OVCAR-4 ovarian
[52] = test system: SK-MEL-5 melanoma
[53] = test system: CAKI-1 renal
[54] = test system: UO-31 renal
[55] = test system: HL-60(TB) leukemia
[56] = test system: SK-MEL-2 melanoma
[57] = test system: PC-3 prostate
[58] = test system: SNB-75 CNS

With `COc1ccc(/C=C(\C#N)c2ccc(OC)cc2)cc1` the GI50 [1] was > 100 µM, the TGI [1] was > 100 µM and the GI50 [2] was 14.9 µM. The TGI [2] was > 100 µM, the GI50 [3] was > 100 µM and the TGI [3] was > 100 µM. For the same compound, the GI50 [4] was 5.81 µM, the TGI [4] was > 100 µM and the GI50 [5] was 82.2 µM. For the same compound, the TGI [5] was > 100 µM, the GI50 [6] was 3.87 µM and the TGI [6] was > 100 µM. For the same compound, the GI50 [7] was 42.8 µM, the TGI [7] was > 100 µM and the GI50 [8] was 14.5 µM. For the same compound, the TGI [8] was > 100 µM, the GI50 [9] was 20.7 µM and the TGI [9] was > 100 µM. For the same compound, the GI50 [10] was 76.1 µM, the TGI [10] was > 100 µM and the GI50 [11] was > 100 µM. For the same compound, the TGI [11] was > 100 µM, the GI50 [12] was 22.9 µM and the TGI [12] was > 100 µM. The GI50 [13] was > 100 µM, the TGI [13] was > 100 µM and the GI50 [14] was 9.77 µM. For the same compound, the TGI [14] was > 100 µM, the GI50 [15] was 10.3 µM and the TGI [15] was > 100 µM. For the same compound, the GI50 [16] was 8.18 µM, the TGI [16] was > 100 µM and the GI50 [17] was 7.31 µM. The TGI [17] was > 100 µM, the GI50 [18] was 5.49 µM and the TGI [18] was > 100 µM. For the same compound, the GI50 [19] was 13.3 µM, the TGI [19] was > 100 µM and the GI50 [20] was 62.3 µM. For the same compound, the TGI [20] was > 100 µM, the GI50 [21] was > 100 µM and the TGI [21] was > 100 µM. The GI50 [22] was 33.6 µM, the TGI [22] was > 100 µM and the GI50 [23] was > 100 µM. For the same compound, the TGI [23] was > 100 µM, the GI50 [24] was 7.1 µM and the TGI [24] was > 100 µM. For the same compound, the GI50 [25] was 32.2 µM, the TGI [25] was > 100 µM and the GI50 [26] was > 100 µM. For the same compound, the TGI [26] was > 100 µM, the GI50 [27] was 7.15 µM and the TGI [27] was > 100 µM. For the same compound, the GI50 [28] was 91.8 µM, the TGI [28] was > 100 µM and the GI50 [29] was 2.78 µM. The TGI [29] was > 100 µM, the GI50 [30] was 41.5 µM and the TGI [30] was > 100 µM. For the same compound, the GI50 [31] was 23.5 µM, the TGI [31] was > 100 µM and the GI50 [32] was 20.6 µM. For the same compound, the TGI [32] was > 100 µM, the GI50 [33] was 13.7 µM and the TGI [33] was > 100 µM. The GI50 [34] was 7.38 µM, the TGI [34] was > 100 µM and the GI50 [35] was 7.59 µM. For the same compound, the TGI [35] was 52 µM, the GI50 [36] was > 100 µM and the TGI [36] was > 100 µM. For the same compound, the GI50 [37] was 2.07 µM, the TGI [37] was > 100 µM and the GI50 [38] was 82.8 µM. The TGI [38] was > 100 µM, the GI50 [39] was > 100 µM and the TGI [39] was > 100 µM. The GI50 [40] was 9.47 µM, the TGI [40] was > 100 µM and the GI50 [41] was 0.563 µM. The TGI [41] was 18.4 µM, the GI50 [42] was 42 µM and the TGI [42] was > 100 µM. For the same compound, the GI50 [43] was 46.1 µM, the TGI [43] was > 100 µM and the GI50 [44] was 8.01 µM. For the same compound, the TGI [44] was > 100 µM, the GI50 [45] was 21.1 µM and the TGI [45] was > 100 µM. For the same compound, the GI50 [46] was 3.13 µM, the TGI [46] was 29.3 µM and the GI50 [47] was 81.7 µM. The TGI [47] was > 100 µM, the GI50 [48] was 9.48 µM and the TGI [48] was > 100 µM. For the same compound, the GI50 [49] was 69.9 µM, the TGI [49] was > 100 µM and the GI50 [50] was 4.56 µM. For the same compound, the TGI [50] was > 100 µM, the GI50 [51] was 27.4 µM and the TGI [51] was > 100 µM. For the same compound, the GI50 [52] was 4.85 µM, the TGI [52] was > 100 µM and the GI50 [53] was 13.1 µM. For the same compound, the TGI [53] was > 100 µM, the GI50 [54] was > 100 µM and the TGI [54] was > 100 µM. For the same compound, the GI50 [55] was 13.5 µM, the TGI [55] was > 100 µM and the GI50 [56] was > 100 µM. For the same compound, the TGI [56] was > 100 µM, the GI50 [57] was 30 µM and the TGI [57] was > 100 µM. For the same compound, the GI50 [58] was 87.6 µM and the TGI [58] was > 100 µM.
